#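 Where inhibition never reached the appropriate level, the endpoint shown equals the highest concentration tested. Otherwise, values were interpolated linearly from a five-concentration, 48-hour dose response in 96-well plates. TGI: total growth inhibition.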
# Key:
# Assay in all cases: NCI-60 cell line screen, 48 h
# [1] = system: 786-0 renal
# [2] = system: A498 renal
# [3] = system: A549 NSCLC
# [4] = system: ACHN renal
# [5] = system: BT-549 breast
# [6] = system: CAKI-1 renal
# [7] = system: CCRF-CEM leukemia
# [8] = system: COLO 205 colon
# [9] = system: EKVX NSCLC
# [10] = system: HCC-2998 colon
# [11] = system: HCT-116 colon
# [12] = system: HCT-15 colon
# [13] = system: KM12 colon
# [14] = system: LOX IMVI melanoma
# [15] = system: M14 melanoma
# [16] = system: MALME-3M melanoma
# [17] = system: MCF7 breast
# [18] = system: MDA-MB-231 breast
# [19] = system: MDA-MB-435
# [20] = system: MDA-N
# [21] = system: MOLT-4 leukemia
# [22] = system: NCI-H226 lung
# [23] = system: NCI-H23 lung
# [24] = system: NCI-H460 lung
# [25] = system: NCI-H522 lung
# [26] = system: NCI/ADR-RES ovarian
# [27] = system: OVCAR-3 ovarian
# [28] = system: OVCAR-4 ovarian
# [29] = system: OVCAR-5 ovarian
# [30] = system: OVCAR-8 ovarian
# [31] = system: PC-3 prostate
# [32] = system: RPMI-8226 leukemia
# [33] = system: RXF 393 renal
# [34] = system: SF-268 CNS
# [35] = system: SF-295 CNS
# [36] = system: SF-539 CNS
# [37] = system: SK-MEL-2 melanoma
# [38] = system: SK-MEL-28 melanoma
# [39] = system: SK-MEL-5 melanoma
# [40] = system: SK-OV-3 ovarian
# [41] = system: SN12C renal
# [42] = system: SNB-19 CNS
# [43] = system: SNB-75 CNS
# [44] = system: SW-620 colon
# [45] = system: T-47D breast
# [46] = system: TK-10 renal
# [47] = system: UACC-257 melanoma
# [48] = system: UO-31 renal
# [49] = system: DU-145 prostate
# [50] = system: HL-60(TB) leukemia
# [51] = system: HOP-62 NSCLC
# [52] = system: HOP-92 NSCLC
# [53] = system: HS 578T breast
# [54] = system: HT29 colon
# [55] = system: IGROV1 ovarian
# [56] = system: K-562 leukemia
# [57] = system: SR leukemia
# [58] = system: U251 CNS
# [59] = system: UACC-62 melanoma
structure (smiles),measurement,setting,value
CC(C)=C[C@H]1CCC2(OCCO2)[C@]1(C)COCc1ccccc1,TGI,[1],80.1 µM
same,TGI,[2],66.7 µM
same,TGI,[3],> 100 µM
same,TGI,[4],> 100 µM
same,TGI,[5],> 100 µM
same,TGI,[6],> 100 µM
same,TGI,[7],34.5 µM
same,TGI,[8],32.3 µM
same,TGI,[9],> 100 µM
same,TGI,[10],37.4 µM
same,TGI,[11],> 100 µM
same,TGI,[12],> 100 µM
same,TGI,[13],> 100 µM
same,TGI,[14],31 µM
same,TGI,[15],99.4 µM
same,TGI,[16],> 100 µM
same,TGI,[17],> 100 µM
same,TGI,[18],53.7 µM
same,TGI,[19],> 100 µM
same,TGI,[20],> 100 µM
same,TGI,[21],32.3 µM
same,TGI,[22],46.8 µM
same,TGI,[23],> 100 µM
same,TGI,[24],59 µM
same,TGI,[25],62.1 µM
same,TGI,[26],> 100 µM
same,TGI,[27],52.7 µM
same,TGI,[28],> 100 µM
same,TGI,[29],82.1 µM
same,TGI,[30],> 100 µM
same,TGI,[31],> 100 µM
same,TGI,[32],41.9 µM
same,TGI,[33],31.7 µM
same,TGI,[34],> 100 µM
same,TGI,[35],> 100 µM
same,TGI,[36],61.7 µM
same,TGI,[37],85.9 µM
same,TGI,[38],> 100 µM
same,TGI,[39],32 µM
same,TGI,[40],> 100 µM
same,TGI,[41],68.5 µM
same,TGI,[42],> 100 µM
same,TGI,[43],> 100 µM
same,TGI,[44],> 100 µM
same,TGI,[45],> 100 µM
same,TGI,[46],> 100 µM
same,TGI,[47],46.4 µM
same,TGI,[48],> 100 µM
CC1(C)/C(=C/N=O)N(O)C(C)(C)N1O,TGI,[1],> 100 µM
same,TGI,[3],> 100 µM
same,TGI,[4],> 100 µM
same,TGI,[6],> 100 µM
same,TGI,[7],> 100 µM
same,TGI,[8],> 100 µM
same,TGI,[49],> 100 µM
same,TGI,[9],> 100 µM
same,TGI,[10],> 100 µM
same,TGI,[11],> 100 µM
same,TGI,[12],> 100 µM
same,TGI,[50],> 100 µM
same,TGI,[51],> 100 µM
same,TGI,[52],> 100 µM
same,TGI,[53],> 100 µM
same,TGI,[54],> 100 µM
same,TGI,[55],> 100 µM
same,TGI,[56],> 100 µM
same,TGI,[13],> 100 µM
same,TGI,[14],> 100 µM
same,TGI,[15],> 100 µM
same,TGI,[16],> 100 µM
same,TGI,[17],> 100 µM
same,TGI,[18],> 100 µM
same,TGI,[19],54.5 µM
same,TGI,[20],> 100 µM
same,TGI,[22],> 100 µM
same,TGI,[23],> 100 µM
same,TGI,[24],> 100 µM
same,TGI,[26],> 100 µM
same,TGI,[27],> 100 µM
same,TGI,[28],> 100 µM
same,TGI,[29],> 100 µM
same,TGI,[30],> 100 µM
same,TGI,[31],> 100 µM
same,TGI,[32],> 100 µM
same,TGI,[33],> 100 µM
same,TGI,[34],> 100 µM
same,TGI,[35],> 100 µM
same,TGI,[36],> 100 µM
same,TGI,[37],> 100 µM
same,TGI,[38],> 100 µM
same,TGI,[39],> 100 µM
same,TGI,[40],> 100 µM
same,TGI,[41],> 100 µM
same,TGI,[42],> 100 µM
same,TGI,[43],> 100 µM
same,TGI,[57],> 100 µM
same,TGI,[44],> 100 µM
same,TGI,[45],> 100 µM
same,TGI,[46],> 100 µM
same,TGI,[58],> 100 µM
same,TGI,[47],> 100 µM
same,TGI,[59],> 100 µM
same,TGI,[48],> 100 µM

# From PubChem BioAssay (NCI)
